Source: US5010058A, “3,5,6-substituted derivatives of 1,2-O-isopropylidene-α,D-glucofuranose and intermediates for preparing these derivatives” (501 Greenwich Pharmaceuticals Incorporated, priority 1989, dated 1991)
Where two headings read alike, the source gives them in different places.

Legend:
[1] = test system: BUD-8 skin cell fibroblasts; assay: Proliferation of BUD-8 skin cell fibroblasts (3H-thymidine uptake); assay type: cell-based, human; details: for 3H-Thymidine uptake by BUD-8 skin cells: triplicates ± SD
Experimental: The human skin cell fibroblast line, BUD-8, was originally derived from the normal skin of a person and can now be obtained from the American Type Culture Collection.
The number of BUD-8 cells was expanded for use by culture in 25 cm^2 flasks at 37° C. in an atmosphere of 5% CO2 in air. At approximately 4-5 five day intervals, or when confluence was reached, the cells were passaged. This was accomplished by detaching the cells with a Teflon scraper, washing and reseeding the cells at a lower density into fresh tissue culture flasks.
The effect of these compound on the proliferative capacity of human BUD-8 skin fibroblasts was measured with the use of a ^3 H-thymidine incorporation assay using culture conditions which were similar to those used for the Con-A blastogenesis assay, described previously. Cultured skin cells were detached from the surface of tissue culture flasks mechanically with a Teflon scraper. The cells were washed, resuspended in incubation medium and the viabilities were determined. These cells were then plated in triplicate at a density of 2×10^3 cells/0.1 ml/microtiter well for the proliferation assays. […] Eighteen hours later, each of the BUD-8 cultures was examined morphologically for evidence of compound-induced toxicity such as cell rounding or granularity. The thymidine-pulsed cells were then precipitated and the amount of ^3 H-thymidine incorporation was counted in a liquid scintillation counter. […]
(§1) ^a Experimental compounds were first suspended in DMSO or ethanol,
^b The effect of experimental compounds on the proliferation of BUD8

[2] = in vivo; cited from earlier work
[3] = test system: normal spleen cells / splenic T-lymphocytes (Con-A stimulated); details: THERAFECTIN comparison; cited from earlier work
[4] = test system: normal spleen cells / splenic T-lymphocytes (Con-A stimulated); assay: Con-A blastogenic response of normal spleen cells (3H-thymidine incorporation); assay type: cell-based, mouse (C57Bl/6); details: for Blastogenic response of normal spleen cells to Con-A: triplicates ± SD; for inhibition at 1 µg/mL / inhibition at 10 µg/mL / inhibition at 25 µg/mL / inhibition at 100 µg/mL / inhibition at 300 µg/mL / inhibition at 750 µg/mL: Mus musculus, T-lymphocyte, 72 h, percent change from no compound, read-out: Blastogenic response of normal spleen cells to Con-A, % effect
Description: A simple method is used to screen compounds for their ability to modulate T-lymphocyte activity which comprises assessing the capacity of the compounds to alter the activation of murine spleen cells in response to T-lymphocyte mitogen activators, such as concanavalin-A (Con-A). The method used to measure the effects of the compounds of the present invention on the blastogenic response of spleen cells to the T-lymphocyte mitogen, (i.e., Con-A), is as follows.
Spleen cells were removed from normal C57Bl/6 mice and homogenized to obtain a single cell suspension. Erythrocytes were lysed by hypotonic shock. Upon determination of the viability and concentration of the remaining lymphoid cells, they were adjusted to a concentration of 4×10^6 /ml. These spleen cells (2×10^5 cells per […]) were seeded into wells of microtiter plates with the compounds of the present invention having the following dose concentrations:
Con-A was also added to these cultures at a final concentration of […]. These cells were cultured for 3 days at 37° C. in a humidified atmosphere of 5% CO2 in air. For the last 18 hours of culture, […] H-thymidine was added to each well. The cells were then precipitated by a multichannel harvester. The amount of ^3 H-thymidine incorporated by the cultured cells were measured in a liquid scintillation counter (Disintegrations per min., DPM). All assays were conducted in triplicate.
The incubation medium used for the blastogenesis assays was RPMI-1640 medium containing 10% fetal bovine serum, […] streptomycin, 100 U/ml penicillin, […] Hepes buffer solution, 5×10^-5 M 2-mercaptoethanol and 2 mM glutamine.
as §1
^b The effect of experimental compounds on the blastogenic response o

[5] = Con-A 1 ug/ml, compound 1 ug/ml
[6] = Con-A 1 ug/ml, compound 10 ug/ml
[7] = Con-A 1 ug/ml, compound 25 ug/ml
[8] = Con-A 1 ug/ml, compound 100 ug/ml
[9] = Con-A 1 ug/ml, compound 300 ug/ml
[10] = Con-A 1 ug/ml, compound 750 ug/ml
[11] = Con-A 4 ug/ml, compound 1 ug/ml
[12] = Con-A 4 ug/ml, compound 10 ug/ml
[13] = Con-A 4 ug/ml, compound 25 ug/ml
[14] = Con-A 4 ug/ml, compound 100 ug/ml
[15] = Con-A 4 ug/ml, compound 300 ug/ml
[16] = Con-A 4 ug/ml, compound 750 ug/ml

CCCCCCCOC1C(C(C)O)OC2OC(C)(C)OC21 [Ex. 3, 1,2-O-Isopropylidene-3-O-(n-heptyl)-6-deoxy-α,D-glucofuranose]
anti-proliferative effect on skin cells [1]: anti-proliferative effect that was statistically significant | inhibition at 1 µg/mL ([1]; Homo sapiens, Fibroblast, compound 1 ug/ml, percent change from no compound, read-out: 3H-Thymidine uptake by BUD-8 skin cells, % effect): 58% | inhibition at 10 µg/mL ([1]; Homo sapiens, Fibroblast, compound 10 ug/ml, percent change from no compound, read-out: 3H-Thymidine uptake by BUD-8 skin cells, % effect): 49% | inhibition at 25 µg/mL ([1]; Homo sapiens, Fibroblast, compound 25 ug/ml, percent change from no compound, read-out: 3H-Thymidine uptake by BUD-8 skin cells, % effect): 19% | inhibition at 100 µg/mL ([1]; Homo sapiens, Fibroblast, compound 100 ug/ml, percent change from no compound, read-out: 3H-Thymidine uptake by BUD-8 skin cells, % effect): 30% | inhibition at 300 µg/mL ([1]; Homo sapiens, Fibroblast, compound 300 ug/ml, percent change from no compound, read-out: 3H-Thymidine uptake by BUD-8 skin cells, % effect): 66% | inhibition at 750 µg/mL ([1]; Homo sapiens, Fibroblast, compound 750 ug/ml, percent change from no compound, read-out: 3H-Thymidine uptake by BUD-8 skin cells, % effect): 43% | 3H-Thymidine uptake by BUD-8 skin cells ([1]; compound 1 ug/ml): 2,589 ± 202 cpm | 3H-Thymidine uptake by BUD-8 skin cells ([1]; compound 10 ug/ml): 3,139 ± 232 cpm | 3H-Thymidine uptake by BUD-8 skin cells ([1]; compound 25 ug/ml): 4,978 ± 632 cpm | 3H-Thymidine uptake by BUD-8 skin cells ([1]; compound 100 ug/ml): 4,288 ± 723 cpm | 3H-Thymidine uptake by BUD-8 skin cells ([1]; compound 300 ug/ml): 2,067 ± 302 cpm | 3H-Thymidine uptake by BUD-8 skin cells ([1]; compound 750 ug/ml): 3,496 ± 1,084 cpm

CN(C)CCCO[C@@H]1[C@H]2OC(C)(C)O[C@H]2O[C@@H]1[C@H](O)CO [THERAFECTIN, 1,2-O-Isopropylidene-3-O-3('N,N'-dimethylamino-n-propyl)-α,D-glucofuranose]
toxicity [2]: little toxicity | utility in rheumatoid arthritis [2]: demonstrated utility in managing the signs and symptoms of rheumatoid arthritis | usual concentration for significant inhibition [3]: 1,000 ug/ml

CCCCCCCOC(C)C1OC2OC(C)(C)OC2C1OCCCN(C)C [Ex. 6, 1,2-O-Isopropylidene-3-O-3'-(N'-N'-dimethylaminopropyl)-5-O-n-heptyl-6-deoxy-α,D-glucofuranose]
Blastogenic response of normal spleen cells to Con-A [4, 5]: 86,406 ± 16,348 cpm | Blastogenic response of normal spleen cells to Con-A [4, 6]: 12,670 ± 6,997 cpm | Blastogenic response of normal spleen cells to Con-A [4, 7]: 5,399 ± 3,253 cpm | Blastogenic response of normal spleen cells to Con-A [4, 8]: 6,597 ± 2,887 cpm | Blastogenic response of normal spleen cells to Con-A [4, 9]: 3,693 ± 340 cpm | Blastogenic response of normal spleen cells to Con-A [4, 10]: 3,709 ± 281 cpm | Blastogenic response of normal spleen cells to Con-A [4, 11]: 75,689 ± 8,498 cpm | Blastogenic response of normal spleen cells to Con-A [4, 12]: 4,693 ± 1,930 cpm | Blastogenic response of normal spleen cells to Con-A [4, 13]: 6,187 ± 6,859 cpm | Blastogenic response of normal spleen cells to Con-A [4, 14]: 6,741 ± 4,224 cpm | Blastogenic response of normal spleen cells to Con-A [4, 15]: 3,756 ± 923 cpm | Blastogenic response of normal spleen cells to Con-A [4, 16]: 2,933 ± 1,383 cpm | inhibition at 1 µg/mL [4, 5]: -20% | inhibition at 10 µg/mL [4, 6]: 82% | inhibition at 25 µg/mL [4, 7]: 93% | inhibition at 100 µg/mL [4, 8]: 91% | inhibition at 300 µg/mL [4, 9]: 95% | inhibition at 750 µg/mL [4, 10]: 95% | inhibition at 1 µg/mL [4, 11]: 22% | inhibition at 10 µg/mL [4, 12]: 95% | inhibition at 25 µg/mL [4, 13]: 94% | inhibition at 100 µg/mL [4, 14]: 93% | inhibition at 300 µg/mL [4, 15]: 96% | inhibition at 750 µg/mL [4, 16]: 97%
